Assay results as given in PubChem BioAssay AID468 (The Scripps Research Institute Molecular Screening Center, 2006).
pEC50: −log10 of the molar value. Calls of active or inactive are those of the source. The rule behind the calls is not given here.

target: Sphingosine 1-phosphate receptor 1 (Homo sapiens) (UniProt P21453); test: S1P1 receptor agonists, dose response, cell-based, agonist mode, 60K MLSMR set (AID 468); settings: S1P1 agonist cell-based assay, activation
Sequence (P21453 whole entry, looked up): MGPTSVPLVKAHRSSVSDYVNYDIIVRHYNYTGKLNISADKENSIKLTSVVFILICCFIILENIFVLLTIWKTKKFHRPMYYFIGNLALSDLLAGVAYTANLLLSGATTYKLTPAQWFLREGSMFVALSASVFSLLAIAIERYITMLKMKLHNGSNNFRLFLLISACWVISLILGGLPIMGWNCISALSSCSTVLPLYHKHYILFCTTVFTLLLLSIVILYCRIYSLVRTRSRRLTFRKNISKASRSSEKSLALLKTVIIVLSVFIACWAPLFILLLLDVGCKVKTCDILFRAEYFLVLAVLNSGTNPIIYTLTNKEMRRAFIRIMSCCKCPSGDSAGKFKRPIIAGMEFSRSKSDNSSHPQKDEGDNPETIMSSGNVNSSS

SMILES | EC50 | pEC50
C/C(N)=C(/C#N)C(=O)CSc1nc2cc(Cl)ccc2s1 | inactive | 
CC1(C)CC(=O)C(C=Nc2ccc3[nH]ncc3c2)=C(O)C1 |  | 5.29
COc1ccc(N2C(=O)CC(Sc3ncn[nH]3)C2=O)c(OC)c1 (stereo not drawn) | inactive | 
Cc1[nH]nc2c1C1(C(=O)N(Cc3ccc(Cl)cc3)c3ccccc31)C(C#N)=C(N)O2 (stereo not drawn) | inactive | 
CC1=C(C(=O)OCc2ccc3c(c2)OCO3)C(c2ccc(F)cc2)NC(=O)N1 (stereo not drawn) |  | 6.36
CCC(=NCCOc1ccc(Cl)cc1)c1c(O)n(C)c(=O)n(C)c1=O |  | 5.30
C/C(N)=C(/C#N)C(=O)CSc1nnc(SCc2ccc(Cl)cc2)s1 |  | 5.05
COc1ccc(/C=N/O)cc1COc1ccc(NC(C)=O)cc1 | > 95 µM (inactive) | 
CCCCc1ccc(C2C(C#N)=C(N)SC(N)=C2C#N)s1 | inactive | 
CC(=O)Oc1ccc(N2C(=O)C3C(C2=O)C2(C)C=CC3(C)O2)cc1 (stereo not drawn) | inactive | 
CCC(=NC(C)c1ccccc1)c1c(O)n(C)c(=O)n(C)c1=O (stereo not drawn) | inactive | 
CC1=C(C(=O)OCc2ccc3c(c2)OCO3)C(c2ccccc2)NC(=O)N1 (stereo not drawn) |  | 5.73
O=C1C2C3C=CC(CO)(O3)C2C(=O)N1c1ccccc1-c1ccccc1 (stereo not drawn) |  | 5.26
COc1ccc(/C(O)=C2/C(=O)C(=O)N(CC3CCCO3)C2c2cccc(OC)c2)cc1 (stereo not drawn) | > 95.1 µM (inactive) | 
CCOc1ccc(C(C)=O)cc1N1C(=O)C2C3C=CC(O3)C2C1=O (stereo not drawn) | inactive | 
CCOC(=O)c1cccc2c1-c1ccccc1/C2=N/O | inactive | 
COC(=O)CC1SC(=O)NC1=Nc1ccccc1 (stereo not drawn) | > 95 µM (inactive) | 
CCC(=NCc1ccc2c(c1)OCO2)c1c(O)n(C2CCCCC2)c(=O)[nH]c1=O |  | 5.17
